Data taken from article PMC2241863 (Nucleic Acids Research, 2007).

Columns and labels:
E. coli RPR = settings: cited from earlier work
[1] = test system: E. coli RNase P holoenzyme; assay: E. coli RNase P holoenzyme ptRNATyr processing assay, 'high-salt' buffer; assay type: biochemical, Escherichia coli; settings: 1 mM added to assay
bacterial RNase P = settings: 'low-salt' buffer, cited from earlier work; for IC50: read-out: IC50 for inhibition of bacterial RNase P
human RNase P = settings: cited from earlier work
[2] = test system: E. coli RNase P holoenzyme; settings: cited from earlier work

| Compound | Effect on E. coli RNase P holoenzyme activity [1] | IC50 (bacterial RNase P) | other results |
| --- | --- | --- | --- |
| NC[C@@H]1O[C@H](O[C@H]2[C@@H](O)[C@H](O[C@@H]3[C@@H](O)[C@H](N)C[C@H](N)[C@H]3O[C@H]3O[C@H](CO)[C@@H](O)[C@H](O)[C@H]3N)O[C@@H]2CO)[C@H](N)[C@@H](O)[C@@H]1O [Par, paromomycin] | – | – | Fold weaker than NeoB in inhibiting bacterial RPR (E. coli RPR): 6 fold |
| N=C(N)NCCC[C@H](N)C(=O)O [arginine] | no effect | – | – |
| NCCCC[C@H](N)C(=O)O [lysine] | no effect | – | – |
| N=C(N)NCCC[C@H](N)C(=O)NC[C@@H]1O[C@H](O[C@H]2[C@@H](O)[C@H](O[C@@H]3[C@@H](O)[C@H](NC(=O)[C@@H](N)CCCNC(=N)N)C[C@H](NC(=O)[C@@H](N)CCCNC(=N)N)[C@H]3O[C@H]3O[C@H](CNC(=O)[C@@H](N)CCCNC(=N)N)[C@@H](O)[C@H](O)[C@H]3NC(=O)[C@@H](N)CCCNC(=N)N)O[C@@H]2CO)[C@H](NC(=O)[C@@H](N)CCCNC(=N)N)[C@@H](O)[C@@H]1O [NeoR6] | – | 0.125 µM | Potency of NeoR6 relative to NeoB in inhibiting bacterial RNase P (bacterial RNase P): 500 fold; Effectiveness against human RNase P compared with bacterial RNase P (human RNase P): not as effective |
| N=C(N)N [guanidine] | no effect | – | – |
| NC[C@@H]1O[C@H](O[C@H]2[C@@H](O)[C@H](O[C@@H]3[C@@H](O)[C@H](N)C[C@H](N)[C@H]3O[C@H]3O[C@H](CN)[C@@H](O)[C@H](O)[C@H]3N)O[C@@H]2CO)[C@H](N)[C@@H](O)[C@@H]1O [NeoB, neomycin B] | – | 60 µM | Increase in IC50 with mutations in E. coli RPR L15 loop (E. coli RPR; L15 mutations that weaken Mg2+ binding): 3 fold; Increase in IC50 in 'high-salt' instead of 'low-salt' buffer [2]: 7 fold |
